# Experimental data published in patent US9388208B2, “Pyrrolo[1,2-f][1,2,4]triazines useful for treating respiratory syncitial virus infections” (Gilead Sciences, Inc., priority 2013, dated 2016).
# Read-outs that look alike come from different tables or passages of the source.
# Assays:
# [1] = Cytotoxicity assay in MT-4 cells; assay type: cell-based; settings: human, Cell-Titer Glo
# Method: The MT-4 cell line was obtained from the NIH AIDS Research and Reference Reagent Program (Germantown, Md.) and cultured in RPMI-1640 medium (Irvine Scientific, Santa Ana, Calif., Cat #9160) supplemented with 10% FBS, 100 units/mL penicillin, 100 units/mL streptomycin, and 2 mM L-Glutamine. The MT-4 cells were passaged twice per week to maintain cell densities below 0.6×10^6 cells/mL. Complete RPMI-1640 media containing 100× concentrations of 3-fold serially diluted compound, ranging from 26 nM to 530 μM, were stamped in quadruplicate into black 384-well plates. After compound addition, 2×10^3 MT-4 cells were added to each well using a MicroFlo liquid dispenser (BioTek, Winooski, Vt.) and the cells were cultured for 5 days at 37° C. in a 5% CO2 incubator. Following the incubation the cells were allowed to equilibrate to 25° C. and cell viability was determined by adding 25 μL of Cell-Titer Glo viability reagent. The mixture was incubated for 10 minutes at 25° C., and the luminescence signal was quantified on a Victor Luminescence plate reader. The CC50 value is defined as the concentration of compound that reduces cell viability by 50% as determined by the Cell-Titer Glo signal. The data were analyzed using Pipeline Pilot Plate Data Analytics Collection software (Version 7.0, Accelrys, San Diego, Calif.). CC50 values were calculated from a non-linear regression analysis using a 4-parameter sigmoidal dose-response equation: Y=Bottom+(Top−Bottom)/(1+10^[(Log CC50−X)*HillSlope]) where the Top and Bottom were fixed at 100% and 0% cell viability, respectively. CC50 values were calculated as the average±standard deviation of 3 independent experiments.
# [2] = test system: RSV strain A2; assay: Anti-RSV activity, infectious cytopathic cell protection assay in HEp-2 cells; assay type: cell-based, Respiratory Syncytial Virus (RSV); settings: human respiratory syncytial virus
# Method: Antiviral activity against RSV is determined using an infectious cytopathic cell protection assay in HEp-2 cells. In this assay, compounds inhibiting viral infection and/or replication produce a cytoprotective effect against the virus-induced cell killing that can be quantified using a cell viability reagent. The techniques used here are novel adaptations of methods described in published literature (Chapman et al., Antimicrob Agents Chemother. 2007, 51(9):3346-53.)
# HEp-2 cells are obtained from ATCC (Manassas, VI) and maintained in MEM media supplemented with 10% fetal bovine serum and penicillin/streptomycin. Cells are passaged twice a week and kept at subconfluent stage. Commercial stock of RSV strain A2 (Advanced Biotechnologies, Columbia, Md.) is titered before compound testing to determine the appropriate dilution of the virus stock that generates desirable cytopathic effect in HEp-2 cells.
# For antiviral tests, HEp-2 cells are grown in large cell culture flasks to near confluency but not fully so. The compounds to be tested are prediluted in DMSO in 384-well compound dilution plates, either in an 8 or 40 sample per plate standardized dose response format. 3-fold serial dilution increments of each test compound are prepared in the plates and test samples are transferred via acoustic transfer apparatus (Echo, Labcyte) at 100 nl per well into cell culture assay 384-well plates. Each compound dilution is transferred in single or quadruplicate samples into dry assay plates, which are stored until assay is ready to go. The positive and negative controls are laid out in opposite on ends of the plate in vertical blocks (1 column).
# Subsequently, an infectious mixture is prepared using an appropriate dilution of virus stock previously determined by titration with cells at a density of 50,000/ml and 20 uL/well is added to test plates w/compounds via automation (uFlow, Biotek). Each plate includes negative and positive controls (16 replicates each) to create 0% and 100% virus inhibition standards, respectively. Following the infection with RSV, testing plates are incubated for 4 days in a 37° C. cell culture incubator. After the incubation, a cell viability reagent, Cell TiterGlo (Promega, Madison, Wis.) is added to the assay plates, which are incubated briefly, and a luminescent readout is measured (Envision, Perkin Elmer) in all the assay plates. The RSV-induced cytopathic effect, percentage inhibition, is determined from the levels of remaining cell viability. These numbers are calculated for each tested concentration relative to the 0% and 100% inhibition controls, and the EC50 value for each compound is determined by non-linear regression as a concentration inhibiting the RSV-induced cytopathic effect by 50%. Various potent anti-RSV tool compounds are used as positive controls for antiviral activity.
# [3] = Cytotoxicity assay in HEp-2 cells; assay type: cell-based; settings: human, uninfected HEp-2 cells, CellTiter Glo
# Method: Cytotoxicity of tested compounds is determined in uninfected HEp-2 cells in parallel with the antiviral activity using the cell viability reagent in a similar fashion as described before for other cell types (Cihlar et al., Antimicrob Agents Chemother. 2008, 52(2):655-65.). The same protocol as for the determination of antiviral activity is used for the measurement of compound cytotoxicity except that the cells are not infected with RSV. Instead, an uninfected cell mixture at the same density is added at 20 ul/well to plates containing prediluted compounds, also at 100 nl/sample. Assay plates are then incubated for 4 days followed by a cell viability test using the same CellTiter Glo reagent addition and measurement of luminescent readouts. Untreated cell and cells treated at 2 uM puromycin (Sigma, St. Louis, Mo.) serve as 100% and 0% cell viability control, respectively. The percent of cell viability is calculated for each tested compound concentration relative to the 0% and 100% controls and the CC50 value is determined by non-linear regression as a compound concentration reducing the cell viability by 50%.
# [4] = 96 h, HEp-2 cells infected with RSV A2, 4 days, Cell TiterGlo, read-out: EC50
# [5] = HEp-2 anti-RSV activity, read-out: EC50 (HEp-2 anti-RSV activity)
"EC50 [2, 4]","EC50 [2, 5]",SMILES,CC50 at 5 days [1],CC50 at 4 days [3],"EC50 ([2]; HEp-2, 96 h)"
> 100 µM,–,"Nc1ncnn2c([C@@H]3O[C@H](CO)[C@@H](O)[C@H]3F)ccc12 [(2R,3R,4R,5S)-5-(4-aminopyrrolo[1,2-f][1,2,4]triazin-7-yl)-4-fluoro-2-(hydroxymethyl)tetrahydrofuran-3-ol, reference compound]",30 µM,–,–
–,–,"Nc1ncnn2c([C@@H]3O[C@H](CO)[C@@H](O)[C@H]3O)ccc12 [(2S,3R,4S,5R)-2-(4-aminopyrrolo[1,2-t][1,2,4]triazin-7-yl)-5-(hydroxymethyl)tetrahydrofuran-3,4-diol, reference compound]",0.007 µM,–,–
9.6 µM,< 100 µM,"C#C[C@]1(CO)O[C@@H](c2ccc3c(N)ncnn23)[C@H](F)[C@@H]1O [Example 2, (2R,3R,4R,5S)-5-(4-aminopyrrolo[1,2-f][1,2,4]triazin-7-yl)-2-ethynyl-4-fluoro-2-(hydroxymethyl)tetrahydrofuran-3-ol]",> 106 µM,> 100 µM,–
2 µM,< 100 µM,"N#C[C@]1(CO)O[C@@H](c2ccc3c(N)ncnn23)[C@H](F)[C@@H]1O [Example 3, (2R,3R,4R,5S)-5-(4-aminopyrrolo[1,24][1,2,4]triazin-7-yl)-4-fluoro-3-hydroxy-2-(hydroxymethyl)tetrahydrofuran-2-carbonitrile]",> 106 µM,> 100 µM,–
30 µM,–,"C[C@]1(CO)O[C@@H](c2ccc3c(N)ncnn23)[C@H](O)[C@@H]1O [Example 4, (2R,3S,4R,5S)-5-(4-aminopyrrolo[1,2-f][1,2,4]triazin-7-yl)-2-(hydroxymethyl)-2-methyltetrahydrofuran-3,4-diol]",> 53 µM,> 50 µM,–
2.1 µM,–,"[N-]=[N+]=N[C@]1(CO)O[C@@H](c2ccc3c(N)ncnn23)[C@H](O)[C@@H]1O [Example 5, (2R,3S,4R,5S)-5-(4-aminopyrrolo[1,2-f][1,2,4]triazin-7-yl)-2-azido-2-(hydroxymethyl)tetrahydrofuran-3,4-diol]",> 53 µM,> 50 µM,–
–,–,"CC(C)(C)C(=O)SCCOP(=O)(OCCSC(=O)C(C)(C)C)OC[C@@]1(C#N)O[C@@H](c2ccc3c(N)ncnn23)[C@H](F)[C@@H]1O [Example 11, S,S′-2,2′-((((2R,3R,4R,5S)-5-(4-aminopyrrolo[1,2-f][1,2,4]triazin-7-yl)-2-cyano-4-fluoro-3-hydroxytetrahydrofuran-2-yl)methoxy)phosphoryl)bis(oxy)bis(ethane-2,1-diyl)bis(2,2-dimethylpropanethioate)]",19.7 µM,42 µM,1.2 µM
–,–,"CCC(CC)COC(=O)[C@H](C)NP(=O)(OC[C@@]1(C#N)O[C@@H](c2ccc3c(N)ncnn23)C(F)C1O)Oc1ccccc1 (stereo partly drawn) [Example 12, (2S)-2-ethylbutyl 2-((((2R,3R,4R,5S)-5-(4-aminopyrrolo[1,2-f][1,2,4]triazin-7-yl)-2-cyano-4-fluoro-3-hydroxytetrahydrofuran-2-yl)methoxy)(phenoxy)phosphorylamino)propanoate]",27 µM,> 50 µM,3 µM
10.5 µM,< 100 µM,"C=C[C@]1(CO)O[C@@H](c2ccc3c(N)ncnn23)[C@H](F)[C@@H]1O [Example 13, (2R,3R,4R,5S)-5-(4-aminopyrrolo[1,2-f][1,2,4]triazin-7-yl)-4-fluoro-2-(hydroxymethyl)-2-vinyltetrahydrofuran-3-ol]",> 106 µM,> 100 µM,–
40 µM,< 100 µM,"CC[C@]1(CO)O[C@@H](c2ccc3c(N)ncnn23)[C@H](F)[C@@H]1O [Example 14, (2R,3R,4R,5S)-5-(4-aminopyrrolo[1,24][1,2,4]triazin-7-yl)-2-ethyl-4-fluoro-2-(hydroxymethyl)tetrahydrofuran-3-ol]",> 106 µM,> 100 µM,–
–,–,"C=C[C@]1(COP(=O)(OCCSC(=O)C(C)(C)C)OCCSC(=O)C(C)(C)C)O[C@@H](c2ccc3c(N)ncnn23)[C@H](F)[C@@H]1O [Example 15, S,S′-2,2′-((((2R,3R,4R,5S)-5-(4-aminopyrrolo[1,2-f][1,2,4]triazin-7-yl)-4-fluoro-3-hydroxy-2-vinyltetrahydrofuran-2-yl)methoxy)phosphoryl)bis(oxy)bis(ethane-2,1-diyl)bis(2,2-dimethylpropanethioate)]",7.9 µM,35 µM,1.6 µM
–,–,"CCC(CC)COC(=O)[C@H](C)NP(=O)(OC[C@@]1(N=[N+]=[N-])O[C@@H](c2ccc3c(N)ncnn23)[C@H](O)[C@@H]1O)Oc1ccccc1 (stereo partly drawn) [Example 16, (2S)-2-ethylbutyl 2-(((((2R,3S,4R,5S)-5-(4-aminopyrrolo[2,1-f][1,2,4]triazin-7-yl)-2-azido-3,4-dihydroxytetrahydrofuran-2-yl)methoxy)(phenoxy)phosphoryl)amino)propanoate]",25 µM,18 µM,0.3 µM
0.4 µM,< 100 µM,"[N-]=[N+]=N[C@]1(CO)O[C@@H](c2ccc3c(N)ncnn23)[C@H](F)[C@@H]1O [Example 19, (2R,3R,4R,5S)-5-(4-aminopyrrolo[2,1-f][1,2,4]triazin-7-yl)-2-azido-4-fluoro-2-(hydroxymethyl)tetrahydrofuran-3-ol]",16 µM,> 44 µM,–
> 50 µM,–,"C=C[C@]1(CO)O[C@@H](c2ccc3c(N)ncnn23)[C@H](O)[C@@H]1O [Example 20, (2R,3S,4R,5S)-5-(4-aminopyrrolo[2,1-f][1,2,4]triazin-7-yl)-2-(hydroxymethyl)-2-vinyltetrahydrofuran-3,4-diol]",> 53 µM,> 50 µM,–
50 µM,< 100 µM,"[N-]=[N+]=N[C@]1(CO)O[C@@H](c2cc(F)c3c(N)ncnn23)[C@H](F)[C@@H]1O [Example 21, (2R,3R,4R,5S)-5-(4-amino-5-fluoropyrrolo[2,1-f][1,2,4]triazin-7-yl)-2-azido-4-fluoro-2-(hydroxymethyl)tetrahydrofuran-3-ol]",15 µM,36 µM,–
23.5 µM,< 100 µM,"N#C[C@]1(CO)O[C@@H](c2cc(F)c3c(N)ncnn23)[C@H](F)[C@@H]1O [Example 23, (2R,3R,4R,5S)-5-(4-amino-5-fluoropyrrolo[2,1-f][1,2,4]triazin-7-yl)-4-fluoro-3-hydroxy-2-(hydroxymethyl)tetrahydrofuran-2-carbonitrile]",21 µM,72 µM,–
